These are literature values, as cited in patent publication US20190045778A1, “EMULSIFIABLE CONCENTRATES” (priority 2016, published 2019).

Where two headings read alike, the source gives them in different places.

Regarding `CN/C(=N\[N+](=O)[O-])NCc1cnc(Cl)s1` [clothianidin], where the note is “at 20° C.”, the “Water Solubility” value was 0.33 g/L at 20 °C.

Regarding `N#C/N=C1/SCCN1Cc1ccc(Cl)nc1` [thiacloprid], the “Water Solubility” value (at 20° C.) is 0.1 g/L at 20 °C.

With thiamethoxam, the “Water Solubility” value (at 25° C.) is 4.1 g/L at 25 °C.
